From patent publication US10695406B2, “Modulation of cellular stress using a B-cell oxidative and/or endoplasmic reticulum stress inhibitor and a targeting agent” (THE UNIVERSITY OF QUEENSLAND, priority 2014, dated 2020)

B1: IL-24: ER stress-inducing cytokine (protein, UniProt Q13007 52-206, looked up)
Interleukin-24: QEFHFGPCQVKGVVPQKLWEAFWAVKDTMQAQDNITSARLLQQEVLQNVSDAESCYLVHTLLEFYLKTVFKNYHNRTVEVRTLKSFSTLANNFVLIVSQLQPSQENEMFSIRDSAHRRFLLFRRAFKQLDVEAALTKALGEVDILLTWMQKFYKL
B2: IL-33: ER stress-inducing cytokine (protein, UniProt O95760 1-270, looked up)
Interleukin-33: MKPKMKYSTNKISTAKWKNTASKALCFKLGKSQQKAKEVCPMYFMKLRSGLMIKKEACYFRRETTKRPSLKTGRKHKRHLVLAACQQQSTVECFAFGISGVQKYTRALHDSSITGISPITEYLASLSTYNDQSITFALEDESYEIYVEDLKKDEKKDKVLLSYYESQHPSNESGDGVDGKMLMVTLSPTKDFWLHANNKEHSVELHKCEKPLPDQAFFVLHNMHSNCVSFECKTDPGVFIGVKDNHLALIKVDSSENLCTENILFKLSET
B3: IL-23: ER stress-inducing cytokine (protein, UniProt Q9NPF7 20-189; P29460 23-328, looked up)
Interleukin-23 subunit alpha: RAVPGGSSPAWTQCQQLSQKLCTLAWSAHPLVGHMDLREEGDEETTNDVPHIQCGDGCDPQGLRDNSQFCLQRIHQGLIFYEKLLGSDIFTGEPSLLPDSPVGQLHASLLGLSQLLQPEGHHWETQQIPSLSPSQPWQRLLLRFKILRSLQAFVAVAARVFAHGAATLSP
Interleukin-12 subunit beta: IWELKKDVYVVELDWYPDAPGEMVVLTCDTPEEDGITWTLDQSSEVLGSGKTLTIQVKEFGDAGQYTCHKGGEVLSHSLLLLHKKEDGIWSTDILKDQKEPKNKTFLRCEAKNYSGRFTCWWLTTISTDLTFSVKSSRGSSDPQGVTCGAATLSAERVRGDNKEYEYSVECQEDSACPAAEESLPIEVMVDAVHKLKYENYTSSFFIRDIIKPDPPKNLQLKPLKNSRQVEVSWEYPDTWSTPHSYFSLTFCVQVQGKSKREKKDRVFTDKTSATVICRKNASISVRAQDRYYSSSWSEWASVPCS
B4: IFN-γ: ER stress-inducing cytokine (protein, UniProt P01579 24-161, looked up)
Interferon gamma: QDPYVKEAENLKKYFNAGHSDVADNGTLFLGILKNWKEESDRKIMQSQIVSFYFKLFKNFKDDQSIQKSVETIKEDMNVKFFNSNKKKRDDFEKLTNYSVTDLNVQRKAIHELIQVMAELSPAAKTGKRKRSQMLFRG

Test system: MIN6N8 murine β-cells
Experiment: ER stress (ERAI reporter of Xbp1-splicing / Xbp1 splicing) in MIN6N8 β-cells
Format: cell-based
Parameters: % Inhibition of ER Stress (Xbp1 splicing): concentration or dose not given beside the values
Conditions: for induction of ER stress (ERAI reporter of Xbp1-splicing): 50 ng/mL cytokines, 24 hour
Protocol: MIN6N8 cells are maintained in line with standard protocols. Cells are transfected with either the ERAI reporter plasmid (F-XBP1ΔDBD-Venus), or the ATF6-GFP plasmid (ADGENE), using LIPFECTAMINE 2000 according to the manufacturer's instructions.
On induction of ER stress, splicing of […] mRNA by IRE1a results in the translation of Venus, but not an active form of XBP1. Fluorescence was measured (excitation: 485 nm; emission: 520 nm) using the POLARstar Omega plate reader and cells were treated 48 h after transfection. The results are normalized with Gapdh expression as fold of vehicle-treated control (Con) cells.
Activation of ATF6 was assessed as follows: the area in pixels per square millimeter co-stained ATF6 and DAPI (blue and green), and total ATF6 staining (green) was determined in 5 fields of view for each section (n=6 for each condition) using IMAGEJ software version 1.45s. Data are presented as the percentage of ATF6 and DAPI co-fluorescence to the total ATF6 fluorescence. Phosphorylation of Ser-51 of eiF2 α was determined by an AlphaScreen assay as per the manufacturer's instructions (PERKIN-ELMER). The Griess reagent method was performed according to the manufacturer's instructions (MOLECULAR PROBES) to assess the intracellular levels of nitric oxide. 5-(and -6-)-carboxy-2,7-dichlorofluorescein diacetate (DCFDA) assay was used to determine the intracellular levels of H2O2 as previously described (Sakon et al., 2003). Cells were treated with glucose or recombinant cytokines at the concentrations indicated in the figure legends, or with 5 μM thapsigargin (SIGMA-ALDRICH) or 10 μg/mL tunicamycin (SIGMA-ALDRICH) or 0.1-0.5 mM Palmitate (SIGMA-ALDRICH) for the times indicated in the legends. ROS was […] using the dihydroethidium (DHE) fluorescent cell-permeable probe (SIGMA-ALDRICH). MIN6N8 cells plated at 2×10^6/mL were incubated with 3 μM DHE and subsequently treated with DMSO (control), 50 ng/mL IL-23 for 30 minutes±[…] IL-22 at the same time or 30 minutes prior to IL-23.
To inhibit transcription factors the following specific inhibitors (and concentrations) were used:
MIN6N8 cells were exposed to a panel of cytokines to determine the effect of each cytokine on ER stress. ER stress was measured using the above-described method. Specifically, the cells were exposed to either a 24 hour treatment of any one of […] glucose (hi glucose), 10 μM H2O2, 0.5 mM palmitic acid or 50 ng/mL cytokines; or a 6 hour treatment with 10 μg/mL tunicamycin or 5 μM thapsigargin.
Experiments to assess ER and/or oxidative stress, and methods of qRT-PCT and/or quantifying gene expression were performed as described for Example 1. Xbp1 splicing is assessed by qRT-PCR, with normalization versus Gapdh, and expression presented as fold of vehicle-treated control cells.

| Molecule | % Inhibition of ER Stress (Xbp1 splicing) (ER stress induced by IFNγ) [%] | % Inhibition of ER Stress (Xbp1 splicing) (ER stress induced by IL-1β) [%] | % Inhibition of ER Stress (Xbp1 splicing) (ER stress induced by IL-17A) [%] | % Inhibition of ER Stress (Xbp1 splicing) (ER stress induced by IL-23) [%] | % Inhibition of ER Stress (Xbp1 splicing) (ER stress induced by IL-24) [%] | % Inhibition of ER Stress (Xbp1 splicing) (ER stress induced by IL-33) [%] | % Inhibition of ER Stress (Xbp1 splicing) (ER stress induced by MIP-2α) [%] | induction of ER stress (ERAI reporter of Xbp1-splicing) |
| --- | --- | --- | --- | --- | --- | --- | --- | --- |
| N[C@@H](CCC(=O)N[C@@H](CS)C(=O)NCC(=O)O)C(=O)O [GSH, reduced glutathione] | 15 | 16 | 0 | 87 | 6 | 13 | 7 | – |
| CNC(=N)NCCC[C@H](N)C(=O)O [L-NMMA, N^G-Methyl-L-arginine] | 87 | 93 | 83 | 78 | 92 | 90 | 95 | – |
| IL-1β: ER stress-inducing cytokine | – | – | – | – | – | – | – | lower stress response |
| IL-17A: ER stress-inducing cytokine | – | – | – | – | – | – | – | lower stress response |
| MIP-2α: ER stress-inducing chemokine | – | – | – | – | – | – | – | lower stress response |
| superoxide dismutase [SOD1] | 74 | 96 | 65 | 95 | 59 | 74 | 88 | – |
| B1 | – | – | – | – | – | – | – | potent inducers of ER stress |
| B2 | – | – | – | – | – | – | – | potent inducers of ER stress |
| B3 | – | – | – | – | – | – | – | potent inducers of ER stress |
| B4 | – | – | – | – | – | – | – | lower stress response |
